ChEMBL document CHEMBL4725370, “Discovery of Proteolysis-Targeting Chimera Molecules that Selectively Degrade the IRAK3 Pseudokinase” (J Med Chem, 2020)
The source made the active and inactive calls. No cut-off for these calls is given here.

Key:
[1] = target: BDNF/NT-3 growth factors receptor (Homo sapiens) (UniProt Q16620); experiment: Inhibition of NTRK2 (unknown origin) at 0.1 uM relative to control
[2] = target: T1, Protein cereblon/Interleukin-1 receptor-associated kinase 3 (Homo sapiens, UniProt Q9Y616+Q96SW2); experiment: Protac activity at CRBN/IRAK3 in human PBMC derived primary macrophages assessed as induction of IRAK3 degradation at 0.3 uM measured after 8 to 32 hrs by Western blot analysis; type: tissue-based; settings: Primary macrophage, time hrs 8-32
[3] = target: T2, NT-3 growth factor receptor (Homo sapiens, UniProt Q16288); experiment: Inhibition of NTRK3 (unknown origin) at 0.1 uM relative to control
THP-1 [4] = experiment: Selectivity ratio of Kd(app) for displacement of polymer supported probe 25 binding to GSG2 in human THP-1 cell lysates to Kd(app) for displacement of polymer supported probe 25 binding to IRAK3 in human THP-1 cell lysates
Protein cereblon = Protein cereblon (Homo sapiens, UniProt Q96SW2); experiment: Inhibition of CRBN (unknown origin)
[5] = target: T1, Protein cereblon/Interleukin-1 receptor-associated kinase 3; experiment: Protac activity at CRBN/IRAK3 in human THP1 cells assessed as induction of IRAK3 degradation at 0.1 uM measured after 6 hrs in presence of proteasome inhibitor MG132 by Western blot analysis; type: cell-based; settings: THP-1
[6] = target: T3, Interleukin-1 receptor-associated kinase 4 (Homo sapiens, UniProt Q9NWZ3); experiment: Displacement of polymer supported probe 25 binding to IRAK4 in human THP-1 cell lysates preincubated for 45 mins under shaking condition followed by probe addition and measured after 30 mins by mass spectrometry based chemoproteomic analysis; type: subcellular; settings: read-out: Kd(app)
T3 sequence (Q9NWZ3 whole entry): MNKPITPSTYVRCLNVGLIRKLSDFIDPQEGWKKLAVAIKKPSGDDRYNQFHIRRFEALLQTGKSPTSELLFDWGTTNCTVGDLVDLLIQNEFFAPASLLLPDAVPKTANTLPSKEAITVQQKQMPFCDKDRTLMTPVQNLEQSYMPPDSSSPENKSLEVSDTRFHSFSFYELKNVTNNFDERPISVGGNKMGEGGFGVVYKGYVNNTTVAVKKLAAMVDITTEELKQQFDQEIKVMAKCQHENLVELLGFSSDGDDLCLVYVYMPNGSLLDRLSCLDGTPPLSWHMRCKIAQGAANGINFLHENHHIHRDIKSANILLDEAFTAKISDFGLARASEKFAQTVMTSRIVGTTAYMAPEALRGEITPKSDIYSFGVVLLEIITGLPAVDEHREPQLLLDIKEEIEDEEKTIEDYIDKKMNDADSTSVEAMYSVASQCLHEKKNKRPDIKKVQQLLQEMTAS

[7] = target: Protein cereblon/Interleukin-1 receptor-associated kinase 1 (Homo sapiens) (UniProt P51617+Q96SW2); experiment: Protac activity at CRBN/IRAK1 in LPS-induced human THP1 cells assessed as induction of IRAK1 degradation at 0.1 uM measured after 6 hrs by HPLC-MS based global proteomic analysis; type: cell-based; settings: THP-1
[8] = target: T1, Protein cereblon/Interleukin-1 receptor-associated kinase 3; experiment: Protac activity at CRBN/IRAK3 in human THP1 cells assessed as induction of IRAK3 degradation at 0.1 uM measured after 2 to 72 hrs by Western blot analysis; type: cell-based; settings: THP-1, time hrs 2-72
[9] = target: Interleukin-1 receptor-associated kinase 3 (Homo sapiens) (UniProt Q9Y616); experiment: Inhibition of IRAK3 (unknown origin) at 0.1 uM relative to control
[10] = target: T1, Protein cereblon/Interleukin-1 receptor-associated kinase 3; experiment: Protac activity at CRBN/IRAK3 in human THP1 cells assessed as induction of IRAK3 degradation at 0.1 uM measured after 24 hrs by Western blot analysis; type: cell-based; settings: THP-1
[11] = Octanol/buffer partition coefficient, log D of the compound at pH 7.4 by shake-flask method; type: physicochemical
[12] = target: T1, Protein cereblon/Interleukin-1 receptor-associated kinase 3; experiment: Protac activity at CRBN/IRAK3 in human PBMC derived primary macrophages assessed as induction of IRAK3 degradation at 0.3 uM preincubated for 8 hrs followed by LPS-stimulation and measured after 8 to 32 hrs by Western blot analysis; type: tissue-based; settings: Primary macrophage
[13] = target: Interleukin-1 receptor-associated kinase 1 (Homo sapiens, UniProt P51617); experiment: Displacement of polymer supported probe 25 binding to IRAK1 in human THP-1 cell lysates preincubated for 45 mins under shaking condition followed by probe addition and measured after 30 mins by mass spectrometry based chemoproteomic analysis; type: subcellular; settings: read-out: Kd(app)
THP-1 [14] = experiment: Selectivity ratio of Kd(app) for displacement of polymer supported probe 25 binding to CDK11 in human THP-1 cell lysates to Kd(app) for displacement of polymer supported probe 25 binding to IRAK3 in human THP-1 cell lysates
[15] = target: Serine/threonine-protein kinase haspin (Homo sapiens) (UniProt Q8TF76); experiment: Inhibition of GSG2 (unknown origin) at 0.1 uM relative to control
[16] = target: T4, Serine/threonine-protein kinase haspin (Homo sapiens, UniProt Q8TF76); experiment: Displacement of polymer supported probe 25 binding to GSG2 in human THP-1 cell lysates preincubated for 45 mins under shaking condition followed by probe addition and measured after 30 mins by mass spectrometry based chemoproteomic analysis; type: subcellular; settings: read-out: Kd(app)
T4 sequence (Q8TF76 whole entry): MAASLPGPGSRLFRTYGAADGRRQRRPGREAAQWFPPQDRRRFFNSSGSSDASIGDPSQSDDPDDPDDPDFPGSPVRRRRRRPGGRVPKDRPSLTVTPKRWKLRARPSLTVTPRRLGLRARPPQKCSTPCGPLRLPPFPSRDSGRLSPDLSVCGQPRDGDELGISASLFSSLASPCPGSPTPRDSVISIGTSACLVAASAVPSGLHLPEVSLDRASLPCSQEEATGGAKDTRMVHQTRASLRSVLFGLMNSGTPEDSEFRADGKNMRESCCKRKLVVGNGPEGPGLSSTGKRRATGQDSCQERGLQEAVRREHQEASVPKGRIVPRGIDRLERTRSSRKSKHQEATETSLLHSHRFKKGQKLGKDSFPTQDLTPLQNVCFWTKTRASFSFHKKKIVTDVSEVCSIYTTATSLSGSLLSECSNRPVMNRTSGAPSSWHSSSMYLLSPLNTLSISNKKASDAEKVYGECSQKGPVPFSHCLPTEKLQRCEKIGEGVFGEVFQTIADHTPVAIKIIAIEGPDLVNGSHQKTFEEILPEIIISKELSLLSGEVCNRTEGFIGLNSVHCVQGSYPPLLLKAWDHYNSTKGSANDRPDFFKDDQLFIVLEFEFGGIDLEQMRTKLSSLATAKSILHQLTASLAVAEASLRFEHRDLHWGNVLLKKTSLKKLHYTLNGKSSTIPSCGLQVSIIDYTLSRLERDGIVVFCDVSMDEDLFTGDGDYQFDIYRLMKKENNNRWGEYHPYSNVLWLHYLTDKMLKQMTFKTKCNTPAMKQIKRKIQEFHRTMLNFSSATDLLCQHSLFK

[17] = target: Protein cereblon/Eukaryotic peptide chain release factor GTP-binding subunit ERF3A (Homo sapiens) (UniProt Q96SW2+P15170); experiment: Protac activity at CRBN/GSPT1 in LPS-induced human THP1 cells assessed as induction of GSPT1 degradation at 0.1 uM measured after 6 hrs by HPLC-MS based global proteomic analysis; type: cell-based; settings: THP-1
[18] = target: T2, NT-3 growth factor receptor; experiment: Inhibition of NTRK3 (unknown origin)
[19] = target: T4, Serine/threonine-protein kinase haspin; experiment: Inhibition of GSG2 (unknown origin)

T1 sequence (Q96SW2 whole entry, looked up): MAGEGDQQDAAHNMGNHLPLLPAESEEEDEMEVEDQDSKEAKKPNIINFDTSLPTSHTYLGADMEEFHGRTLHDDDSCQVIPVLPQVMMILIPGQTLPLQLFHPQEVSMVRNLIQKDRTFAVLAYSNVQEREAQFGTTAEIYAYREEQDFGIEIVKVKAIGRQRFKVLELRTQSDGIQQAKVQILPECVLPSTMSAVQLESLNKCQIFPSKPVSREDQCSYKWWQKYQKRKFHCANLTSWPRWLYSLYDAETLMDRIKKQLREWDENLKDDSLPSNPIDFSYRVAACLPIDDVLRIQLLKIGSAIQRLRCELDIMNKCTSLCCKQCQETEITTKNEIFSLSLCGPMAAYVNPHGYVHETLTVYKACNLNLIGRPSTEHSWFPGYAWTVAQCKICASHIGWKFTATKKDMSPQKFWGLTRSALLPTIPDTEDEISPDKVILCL
T1 sequence (Q9Y616 whole entry, looked up): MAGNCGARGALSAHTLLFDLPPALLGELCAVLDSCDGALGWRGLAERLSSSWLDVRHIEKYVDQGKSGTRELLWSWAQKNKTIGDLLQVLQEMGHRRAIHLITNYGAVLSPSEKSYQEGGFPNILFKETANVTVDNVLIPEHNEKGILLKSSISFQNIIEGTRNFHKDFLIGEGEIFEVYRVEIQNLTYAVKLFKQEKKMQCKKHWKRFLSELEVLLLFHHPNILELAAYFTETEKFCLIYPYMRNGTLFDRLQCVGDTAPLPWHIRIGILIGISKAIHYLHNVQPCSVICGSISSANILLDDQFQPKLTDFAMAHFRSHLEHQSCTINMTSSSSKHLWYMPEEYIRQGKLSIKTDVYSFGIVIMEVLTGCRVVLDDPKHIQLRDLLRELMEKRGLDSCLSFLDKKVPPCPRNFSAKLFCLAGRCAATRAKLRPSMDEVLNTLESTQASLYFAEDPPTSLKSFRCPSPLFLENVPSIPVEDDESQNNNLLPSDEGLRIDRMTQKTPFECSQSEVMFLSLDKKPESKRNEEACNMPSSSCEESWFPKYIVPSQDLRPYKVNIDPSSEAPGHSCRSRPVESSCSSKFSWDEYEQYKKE
Chain of Protein cereblon/Eukaryotic peptide chain release factor GTP-binding subunit ERF3A (Homo sapiens) (P15170 whole entry, looked up): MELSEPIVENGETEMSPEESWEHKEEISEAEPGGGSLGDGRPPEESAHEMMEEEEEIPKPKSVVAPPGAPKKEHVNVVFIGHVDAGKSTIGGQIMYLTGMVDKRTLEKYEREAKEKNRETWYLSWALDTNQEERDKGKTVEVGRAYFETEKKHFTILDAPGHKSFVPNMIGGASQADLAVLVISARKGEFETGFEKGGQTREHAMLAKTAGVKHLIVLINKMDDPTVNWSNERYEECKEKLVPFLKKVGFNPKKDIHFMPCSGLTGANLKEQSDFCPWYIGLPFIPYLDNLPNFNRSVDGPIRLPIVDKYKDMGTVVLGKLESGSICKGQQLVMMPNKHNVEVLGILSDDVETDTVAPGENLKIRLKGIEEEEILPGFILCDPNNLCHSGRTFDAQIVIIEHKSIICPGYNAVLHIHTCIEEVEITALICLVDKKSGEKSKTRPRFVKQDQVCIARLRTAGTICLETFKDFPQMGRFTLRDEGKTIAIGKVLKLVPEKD
Chain of Protein cereblon/Eukaryotic peptide chain release factor GTP-binding subunit ERF3A (Homo sapiens) (Q96SW2 whole entry, looked up): as the sequence (Q96SW2 whole entry, looked up) above
Chain of Interleukin-1 receptor-associated kinase 3 (Homo sapiens) (Q9Y616 whole entry): as the sequence (Q9Y616 whole entry, looked up) above
Chain of Protein cereblon (Q96SW2 whole entry): as the sequence (Q96SW2 whole entry, looked up) above
Chain of BDNF/NT-3 growth factors receptor (Homo sapiens) (Q16620 32-822 limits assumed): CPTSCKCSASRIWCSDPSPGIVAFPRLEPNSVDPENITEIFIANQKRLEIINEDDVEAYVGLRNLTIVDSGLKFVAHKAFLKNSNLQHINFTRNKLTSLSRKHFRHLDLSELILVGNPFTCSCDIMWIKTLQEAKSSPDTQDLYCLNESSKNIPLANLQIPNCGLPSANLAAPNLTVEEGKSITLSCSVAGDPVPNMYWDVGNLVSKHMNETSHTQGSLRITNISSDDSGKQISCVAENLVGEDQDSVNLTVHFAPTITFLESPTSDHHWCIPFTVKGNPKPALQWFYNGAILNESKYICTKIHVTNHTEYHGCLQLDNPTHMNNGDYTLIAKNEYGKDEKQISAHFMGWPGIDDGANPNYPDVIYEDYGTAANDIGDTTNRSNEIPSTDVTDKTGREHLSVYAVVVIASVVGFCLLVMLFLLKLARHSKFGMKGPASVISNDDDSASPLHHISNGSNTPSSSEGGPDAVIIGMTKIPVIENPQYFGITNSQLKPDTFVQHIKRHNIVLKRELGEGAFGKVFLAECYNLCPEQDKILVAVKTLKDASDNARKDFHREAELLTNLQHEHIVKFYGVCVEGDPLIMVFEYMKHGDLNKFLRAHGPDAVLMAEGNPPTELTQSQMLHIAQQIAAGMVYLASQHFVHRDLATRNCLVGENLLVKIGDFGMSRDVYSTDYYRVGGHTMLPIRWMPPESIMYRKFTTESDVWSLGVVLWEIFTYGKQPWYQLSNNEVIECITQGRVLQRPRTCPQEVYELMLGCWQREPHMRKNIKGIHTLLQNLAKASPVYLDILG
Chain of Protein cereblon/Interleukin-1 receptor-associated kinase 1 (Homo sapiens) (P51617 whole entry, looked up): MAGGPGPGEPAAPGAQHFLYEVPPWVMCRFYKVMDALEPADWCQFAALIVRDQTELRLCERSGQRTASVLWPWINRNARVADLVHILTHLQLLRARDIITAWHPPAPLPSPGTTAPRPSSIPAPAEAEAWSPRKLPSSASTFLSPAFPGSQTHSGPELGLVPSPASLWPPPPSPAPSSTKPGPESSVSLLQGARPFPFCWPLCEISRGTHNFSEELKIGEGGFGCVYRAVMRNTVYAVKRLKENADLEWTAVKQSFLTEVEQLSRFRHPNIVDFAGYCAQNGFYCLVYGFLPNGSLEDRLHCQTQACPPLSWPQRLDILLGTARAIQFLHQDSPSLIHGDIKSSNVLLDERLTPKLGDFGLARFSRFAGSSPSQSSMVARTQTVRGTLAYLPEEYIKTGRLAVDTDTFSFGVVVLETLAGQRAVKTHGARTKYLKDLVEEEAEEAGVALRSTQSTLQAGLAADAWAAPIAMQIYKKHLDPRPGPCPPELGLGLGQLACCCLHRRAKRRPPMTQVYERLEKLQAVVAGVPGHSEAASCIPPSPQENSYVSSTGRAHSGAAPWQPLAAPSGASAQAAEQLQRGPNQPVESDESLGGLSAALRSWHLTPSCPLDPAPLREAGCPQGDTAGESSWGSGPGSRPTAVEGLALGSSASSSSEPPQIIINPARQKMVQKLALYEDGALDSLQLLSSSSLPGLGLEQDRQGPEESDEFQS
Chain of Protein cereblon/Interleukin-1 receptor-associated kinase 1 (Homo sapiens) (Q96SW2 whole entry, looked up): as the sequence (Q96SW2 whole entry, looked up) above

With CC(C)c1ccn2ncnc(N[C@H]3CC[C@@H](N4CCN(C(=O)CCC(=O)N5CCC(CCN6CCN(c7ccc8c(c7)C(=O)N(C7CCC(=O)NC7=O)C8=O)CC6)CC5)CC4)CC3)c12 (stereo not given in full) the inhibition [1] was 45%, the Activity [2] was “Active” and the inhibition [3] was 60%. The Selectivity ratio (THP-1 [4]) was 23, the IC50 (Protein cereblon) was 460 nM and the Activity [5] was “inactive”. The Kd [6] was 3600 nM, the Activity [7] was “inactive” and the Activity [8] was “Active”. For the same compound, the inhibition [9] was 93%, the Activity [10] was “Active” and the logD [11] was 3.1. The Activity [12] was “Active”, the Kd [13] was 2800 nM and the Selectivity ratio (THP-1 [14]) was greater than 880. For the same compound, the inhibition [15] was 57%, the Kd [16] was 780 nM and the Activity [17] was “inactive”. For the same compound, the IC50 [18] was 100 nM and the IC50 [19] was 110 nM.
